Test results reported in article PMC7914897, “Cytotoxic Potential of a-Azepano- and 3-Amino-3,4-SeCo-Triterpenoids” (International Journal of Molecular Sciences, 2021).
Where two headings read alike, the source gives them in different places.

What was measured:
[1] = test system: A2780 (ovarian carcinoma); experiment: SRB cytotoxicity assay, 72 h; type: cell-based, human; conditions: Homo sapiens; A2780, 72 h, cut-off 30 µM; read-out: EC50
Protocol: (§1) The cytotoxicity of compounds 1–20 was evaluated by means of a colorimetric sulforhodamine B (SRB) assay. For all compounds, the EC50 values were determined for the human tumor cell lines A375 (malignant melanoma), HT29 (colorectal carcinoma), MCF-7 (breast carcinoma), A2780 (ovarian carcinoma), FaDu (hypopharyngeal carcinoma), and NIH 3T3 (non-malignant mouse fibroblasts).
(§2) In short, exponentially growing cells were seeded into 96-well plates on day 0 at the appropriate cell densities to prevent confluence of the cells during the period of experiment. After 24 h, the cells were treated with serial dilutions of the compounds (0–30 µM) for 72 h. The final concentration of DMSO never exceeded 0.5%, which was non-toxic to the cells. After a 72 h treatment, the supernatant medium from the 96-well plates was discarded, and the cells were fixed with 10% TCA. For a thorough fixation, the plates were allowed to rest at 4 °C. After fixation, the cells were washed in a strip washer. The washing was done four times with water using alternate dispensing and aspiration procedures. The plates were then dyed with 100 µL of 0.4% SRB for about 20 min. After dying, the plates were washed with 1% acetic acid to remove the excess of the dye and allowed to air-dry overnight. Tris base solution (200 µL, 10 mM) was added to each well and absorbance was measured at λ = 570 nm (using a 96 well plate reader, Tecan Spectra, Crailsheim, Germany). The percentages of surviving cells relative to untreated controls were determined.

[2] = test system: A375 (malignant melanoma); experiment: SRB cytotoxicity assay, 72 h; type: cell-based, human; conditions: Homo sapiens, A-375, 72 h, A375, 72 h, cut-off 30 µM; read-out: EC50
Protocol: as §1, §2

[3] = test system: FaDu (hypopharyngeal carcinoma); experiment: SRB cytotoxicity assay, 72 h; type: cell-based, human; conditions: Homo sapiens, cut-off 30 µM, read-out: EC50
Protocol: as §1, §2

[4] = test system: HT29 (colorectal carcinoma); experiment: SRB cytotoxicity assay, 72 h; type: cell-based, human; conditions: Homo sapiens, HT-29; HT29, 72 h, cut-off 30 µM; read-out: EC50
Protocol: as §1, §2

MCF-7 (breast carcinoma) = experiment: SRB cytotoxicity assay, 72 h; type: cell-based, human; conditions: Homo sapiens, MCF7; MCF-7, 72 h, cut-off 30 µM; read-out: EC50
Protocol: as §1, §2

LOX IMVI (Melanoma) = experiment: NCI-60 screen (SRB, 48 h); type: cell-based; conditions: Homo sapiens; for IC (TGI) / activity at 10 µM: 48 h; for activity at 10 µM: 1 dose 10 µM, read-out: Growth % of the Most Sensitive Cell Lines
NSC lung cancer subpanel = experiment: NCI-60 screen, subpanel; conditions: Homo sapiens; for IC (TGI): 48 h, read-out: TGI MG_MID; for GI50: read-out: GI50 MG_MID; for CC50: read-out: LC50 MG_MID
CNS cancer subpanel = experiment: NCI-60 screen, subpanel; conditions: Homo sapiens; for IC (TGI): 48 h, read-out: TGI MG_MID; for GI50: read-out: GI50 MG_MID; for CC50: read-out: LC50 MG_MID
Ovarian Cancer subpanel = experiment: NCI-60 screen, subpanel; conditions: Homo sapiens; for IC (TGI): 48 h, read-out: TGI MG_MID; for GI50: read-out: GI50 MG_MID; for CC50: read-out: LC50 MG_MID
Breast cancer subpanel = experiment: NCI-60 screen, subpanel; conditions: Homo sapiens; for IC (TGI): 48 h, read-out: TGI MG_MID; for GI50: read-out: GI50 MG_MID; for CC50: read-out: LC50 MG_MID
[5] = test system: A549/ATCC (NSC lung cancer); experiment: NCI-60 screen (SRB, 48 h); conditions: Homo sapiens; for GI50: A549; for IC (TGI): A549, 48 h, read-out: TGI
[6] = test system: NCI-H23 (NSC lung cancer); experiment: NCI-60 screen (SRB, 48 h); conditions: Homo sapiens; for GI50: NCI-H23; for IC (TGI): NCI-H23, 48 h, read-out: TGI
[7] = test system: NCI-H460 (NSC lung cancer); experiment: NCI-60 screen (SRB, 48 h); conditions: for GI50: NCI-H460; for IC (TGI): NCI-H460, 48 h, read-out: TGI
[8] = test system: NCI-H522 (NSC lung cancer); experiment: NCI-60 screen (SRB, 48 h); conditions: Homo sapiens; for GI50: NCI-H522; for IC (TGI): NCI-H522, 48 h, read-out: TGI; for CC50: NCI-H522, read-out: LC50
SF-268 (CNS cancer) = experiment: NCI-60 screen (SRB, 48 h); conditions: Homo sapiens; for GI50: SF-268; for IC (TGI): SF-268, 48 h, read-out: TGI; for CC50: SF-268, read-out: LC50
SF-295 (CNS cancer) = experiment: NCI-60 screen (SRB, 48 h); conditions: Homo sapiens; for GI50: SF-295; for IC (TGI): SF-295, 48 h, read-out: TGI
SF-539 (CNS cancer) = experiment: NCI-60 screen (SRB, 48 h); conditions: Homo sapiens; for GI50: SF-539; for IC (TGI): SF-539, 48 h, read-out: TGI; for CC50: SF-539, read-out: LC50
U251 (CNS cancer) = experiment: NCI-60 screen (SRB, 48 h); conditions: for GI50: U-251; for IC (TGI): U-251, 48 h, read-out: TGI
M14 (Melanoma) = experiment: NCI-60 screen (SRB, 48 h); conditions: Homo sapiens; for GI50: M14; for IC (TGI): M14, 48 h, read-out: TGI
SK-MEL-2 (Melanoma) = experiment: NCI-60 screen (SRB, 48 h); conditions: Homo sapiens; for GI50: SK-MEL-2; for IC (TGI): SK-MEL-2, 48 h, read-out: TGI; for CC50: SK-MEL-2, read-out: LC50
SK-MEL-28 (Melanoma) = experiment: NCI-60 screen (SRB, 48 h); conditions: for GI50: SK-MEL-28; for IC (TGI): SK-MEL-28, 48 h, read-out: TGI
OVCAR-5 (Ovarian cancer) = experiment: NCI-60 screen (SRB, 48 h); conditions: Homo sapiens; for GI50: OVCAR-5; for IC (TGI): OVCAR-5, 48 h, read-out: TGI
CAKI-1 (Renal cancer) = experiment: NCI-60 screen (SRB, 48 h); conditions: Homo sapiens; for GI50: CAKI-1; for IC (TGI): CAKI-1, 48 h, read-out: TGI; for CC50: CAKI-1, read-out: LC50
RXF 393 (Renal cancer) = experiment: NCI-60 screen (SRB, 48 h); conditions: Homo sapiens; for GI50: RXF 393; for IC (TGI): RXF 393, 48 h, read-out: TGI; for CC50: RXF 393, read-out: LC50

## C[C@H]1[C@H](C)CC[C@]2(CO)CC[C@]3(C)C(=CC[C@@H]4[C@@]5(C)CCCNC(C)(C)[C@@H]5CC[C@]43C)[C@H]12 [Compound 4, azepanouvaol]
[1]
  EC50: 2.63 ± 0.1 µM
[2]
  EC50: 2.4 ± 0.2 µM
[3]
  EC50: 1.69 ± 0.4 µM
[4]
  EC50: 1.71 ± 0.3 µM
MCF-7 (breast carcinoma)
  EC50: 2.3 ± 0.2 µM
LOX IMVI (Melanoma)
  GI50: 1.59 µM
  IC (TGI): 3.05 µM
  activity at 10 µM: -94.9%
LOX IMVI (Melanoma); read-out: LC50 (the source's name)
  CC50: 5.84 µM
NSC lung cancer subpanel
  IC (TGI): 3.4 µM
  GI50: 1.74 µM
  CC50: 6.37 µM
CNS cancer subpanel
  IC (TGI): 3.2 µM
  GI50: 1.69 µM
  CC50: 6.06 µM
Ovarian Cancer subpanel
  IC (TGI): 3.59 µM
  GI50: 1.91 µM
  CC50: 11.4 µM
Breast cancer subpanel
  IC (TGI): 3.69 µM
  GI50: 1.74 µM
  CC50: 12.6 µM
[5]
  GI50: 1.74 µM
  IC (TGI): 3.28 µM
[5]; A549, read-out: LC50
  CC50: 6.16 µM
[6]
  GI50: 1.65 µM
  IC (TGI): 3.26 µM
[6]; NCI-H23, read-out: LC50
  CC50: 6.47 µM
[7]; Homo sapiens
  GI50: 1.78 µM
  IC (TGI): 3.35 µM
[7]; Homo sapiens, NCI-H460, read-out: LC50
  CC50: 6.3 µM
[7]; NCI-H460, 1 dose 10 µM
  Growth % of the Most Sensitive Cell Lines: −83.30%
[8]
  GI50: 1.71 µM
  IC (TGI): 3.32 µM
  CC50: 6.43 µM
SF-268 (CNS cancer)
  GI50: 1.79 µM
  IC (TGI): 3.5 µM
  CC50: 6.84 µM
SF-295 (CNS cancer)
  GI50: 1.64 µM
  IC (TGI): 3.06 µM
SF-295 (CNS cancer); SF-295, read-out: LC50
  CC50: 5.72 µM
SF-539 (CNS cancer)
  GI50: 1.69 µM
  IC (TGI): 3.16 µM
  CC50: 5.9 µM
U251 (CNS cancer); Homo sapiens
  GI50: 1.67 µM
  IC (TGI): 3.15 µM
U251 (CNS cancer); Homo sapiens, U-251, read-out: LC50
  CC50: 5.94 µM
U251 (CNS cancer); U251, 1 dose 10 µM
  Growth % of the Most Sensitive Cell Lines: −83.30%
M14 (Melanoma)
  GI50: 1.61 µM
  IC (TGI): 3.12 µM
M14 (Melanoma); M14, read-out: LC50
  CC50: 6.04 µM
SK-MEL-2 (Melanoma)
  GI50: 1.9 µM
  IC (TGI): 3.63 µM
  CC50: 6.91 µM
SK-MEL-28 (Melanoma); Homo sapiens
  GI50: 1.75 µM
  IC (TGI): 3.3 µM
SK-MEL-28 (Melanoma); Homo sapiens, SK-MEL-28, read-out: LC50
  CC50: 6.22 µM
SK-MEL-28 (Melanoma); SK-MEL-28, 1 dose 10 µM
  Growth % of the Most Sensitive Cell Lines: −84.86%
OVCAR-5 (Ovarian cancer)
  GI50: 1.69 µM
  IC (TGI): 3.18 µM
OVCAR-5 (Ovarian cancer); OVCAR-5, read-out: LC50
  CC50: 5.99 µM
CAKI-1 (Renal cancer)
  GI50: 1.62 µM
  IC (TGI): 3.23 µM
  CC50: 6.43 µM
RXF 393 (Renal cancer)
  GI50: 1.81 µM
  IC (TGI): 3.51 µM
  CC50: 6.79 µM

## Cc1ccc(S(=O)(=O)OC[C@]23CCC(C)(C)C[C@H]2C2=CC[C@@H]4[C@@]5(C)CCCNC(C)(C)[C@@H]5CC[C@@]4(C)[C@]2(C)CC3)cc1 [Compound 15]
[1]
  EC50: 1.48 ± 0.2 µM
[2]
  EC50: 2.36 ± 0.1 µM
[3]
  EC50: 2.02 ± 0.2 µM
[4]
  EC50: 2.33 ± 0.2 µM
MCF-7 (breast carcinoma)
  EC50: 2.4 ± 0.1 µM
LOX IMVI (Melanoma)
  IC (TGI): 3 µM
  activity at 10 µM: -87.7%
LOX IMVI (Melanoma); read-out: GI50
  GI50: 1.6 µM
NSC lung cancer subpanel
  IC (TGI): 3.42 µM
  GI50: 3.14 µM
  CC50: 53.4 µM
CNS cancer subpanel
  IC (TGI): 4.11 µM
  GI50: 1.78 µM
  CC50: 26.5 µM
Ovarian Cancer subpanel
  IC (TGI): 3.35 µM
  GI50: 1.74 µM
  CC50: 6.03 µM
Breast cancer subpanel
  IC (TGI): 3.63 µM
  GI50: 1.75 µM
  CC50: 9.14 µM
[5]
  GI50: 1.83 µM
  IC (TGI): 3.66 µM
[6]
  GI50: 1.7 µM
  IC (TGI): 3.27 µM
[7]; Homo sapiens
  GI50: 1.77 µM
  IC (TGI): 3.37 µM
[8]
  GI50: 1.69 µM
  IC (TGI): 3.38 µM
  CC50: 6.78 µM
SF-268 (CNS cancer)
  GI50: 2.32 µM
  IC (TGI): 8.44 µM
  CC50: 67.9 µM
SF-295 (CNS cancer)
  GI50: 1.71 µM
  IC (TGI): 3.3 µM
SF-539 (CNS cancer)
  GI50: 1.71 µM
  IC (TGI): 3.15 µM
  CC50: 5.79 µM
U251 (CNS cancer); Homo sapiens
  GI50: 1.74 µM
  IC (TGI): 3.29 µM
M14 (Melanoma)
  GI50: 1.87 µM
  IC (TGI): 3.58 µM
SK-MEL-2 (Melanoma)
  GI50: 2.19 µM
  IC (TGI): 4.83 µM
  CC50: 16.4 µM
SK-MEL-28 (Melanoma); Homo sapiens
  GI50: 1.84 µM
  IC (TGI): 3.38 µM
OVCAR-5 (Ovarian cancer)
  GI50: 1.61 µM
  IC (TGI): 3.01 µM
CAKI-1 (Renal cancer)
  GI50: 1.45 µM
  IC (TGI): 2.82 µM
  CC50: 5.46 µM
RXF 393 (Renal cancer)
  GI50: 1.38 µM
  IC (TGI): 2.78 µM
  CC50: 5.59 µM
